Test results as given in patent US10710978B2, “STK4 inhibitors for treatment of hematologic malignancies” (Dana-Farber Cancer Institute, Inc., priority 2015, dated 2020).
Read-outs that look alike come from different tables or passages of the source.

Legend:
Experiment in all cases: KiNativ assay
Format in all cases: binding
AurB = AurB (Homo sapiens (Human), UniProt Q96GD4); conditions: H929 live cell
Experimental: (§1) Biochemical IC50s of the compounds of the present disclosure against various kinases were measured in a KiNativ assay. Compounds were screened in duplicate at 10 μM in H929 live cell. IC50 was measured via Mass spectroscopy (MS).

CaMK2d = CaMK2d (Homo sapiens (Human), UniProt Q13557); conditions: H929 live cell
Experimental: as §1

CaMK2g = CaMK2g (Homo sapiens (Human), UniProt Q13555); conditions: H929 live cell
Experimental: as §1

CaMKK2 = CaMKK2 (Homo sapiens (Human), UniProt Q96RR4); conditions: H929 live cell
Experimental: as §1

Erk2 = Erk2 (Homo sapiens (Human), UniProt P28482); conditions: H929 live cell
Experimental: as §1

FER = FER (Homo sapiens (Human), UniProt P16591); conditions: H929 live cell
Experimental: as §1

GCN2 domain2 = GCN2 domain2 (Homo sapiens (Human), UniProt Q9P2K8); conditions: H929 live cell
Experimental: as §1

GSK3A = GSK3A (Homo sapiens (Human), UniProt P49840); conditions: H929 live cell
Experimental: as §1

GSK3B = GSK3B (Homo sapiens (Human), UniProt P49841); conditions: H929 live cell
Experimental: as §1

IKKb = IKKb (Homo sapiens (Human), UniProt O14920); conditions: H929 live cell
Experimental: as §1

ILK = ILK (Homo sapiens (Human), UniProt Q13418); conditions: H929 live cell
Experimental: as §1

IRE1 = IRE1 (Homo sapiens (Human), UniProt O75460); conditions: H929 live cell
Experimental: as §1

JNK1, JNK2, JNK3 = conditions: H929 live cell
Experimental: as §1

LATS1 = LATS1 (Homo sapiens (Human), UniProt O95835); conditions: H929 live cell
Experimental: as §1

LKB1 = LKB1 (Homo sapiens (Human), UniProt Q15831); conditions: H929 live cell
Experimental: as §1

LYN = LYN (Homo sapiens (Human), UniProt P07948); conditions: H929 live cell
Experimental: as §1

MAP2K1, MAP2K2 = conditions: 10 μM, H929 live cell; range class
Experimental: as §1

MAP3K2 = MAP3K2 (Homo sapiens (Human), UniProt Q9Y2U5); conditions: H929 live cell
Experimental: as §1

MAP3K2, MAP3K3 = conditions: H929 live cell
Experimental: as §1

MLKL = MLKL (Homo sapiens (Human), UniProt Q8NB16); conditions: H929 live cell
Experimental: as §1

NEK6, NEK7 = conditions: H929 live cell
Experimental: as §1

NEK8 = NEK8 (Homo sapiens (Human), UniProt Q86SG6); conditions: H929 live cell
Experimental: as §1

NuaK2 = NuaK2 (Homo sapiens (Human), UniProt Q9H093); conditions: H929 live cell
Experimental: as §1

PEK = PEK (Homo sapiens (Human), UniProt Q9NZJ5); conditions: H929 live cell
Experimental: as §1

PIP4K2A = PIP4K2A (Homo sapiens (Human), UniProt P48426); conditions: H929 live cell
Experimental: as §1

PKCz = PKCz (Homo sapiens (Human), UniProt Q05513); conditions: H929 live cell
Experimental: as §1

PKD3 = PKD3 (Homo sapiens (Human), UniProt O94806); conditions: H929 live cell
Experimental: as §1

PRPK = PRPK (Homo sapiens (Human), UniProt Q96S44); conditions: H929 live cell
Experimental: as §1

RSK1 domain1 = RSK1 domain1 (Homo sapiens (Human), UniProt Q15418); conditions: H929 live cell
Experimental: as §1

SNRK = SNRK (Homo sapiens (Human), UniProt Q9NRH2); conditions: H929 live cell
Experimental: as §1

STLK5 = STLK5 (Homo sapiens (Human), UniProt Q7RTN6); conditions: H929 live cell
Experimental: as §1

TAO1, TAO3 = conditions: H929 live cell
Experimental: as §1

ZAK = ZAK (Homo sapiens (Human), UniProt Q9NYL2); conditions: H929 live cell
Experimental: as §1

[1] = tested on: ZC1/HGK, ZC2/TNIK, ZC3/MINK; conditions: H929 live cell
Experimental: as §1

[2] = range class, read-out: % inhibition

PKCz, sequence (Q05513 whole entry): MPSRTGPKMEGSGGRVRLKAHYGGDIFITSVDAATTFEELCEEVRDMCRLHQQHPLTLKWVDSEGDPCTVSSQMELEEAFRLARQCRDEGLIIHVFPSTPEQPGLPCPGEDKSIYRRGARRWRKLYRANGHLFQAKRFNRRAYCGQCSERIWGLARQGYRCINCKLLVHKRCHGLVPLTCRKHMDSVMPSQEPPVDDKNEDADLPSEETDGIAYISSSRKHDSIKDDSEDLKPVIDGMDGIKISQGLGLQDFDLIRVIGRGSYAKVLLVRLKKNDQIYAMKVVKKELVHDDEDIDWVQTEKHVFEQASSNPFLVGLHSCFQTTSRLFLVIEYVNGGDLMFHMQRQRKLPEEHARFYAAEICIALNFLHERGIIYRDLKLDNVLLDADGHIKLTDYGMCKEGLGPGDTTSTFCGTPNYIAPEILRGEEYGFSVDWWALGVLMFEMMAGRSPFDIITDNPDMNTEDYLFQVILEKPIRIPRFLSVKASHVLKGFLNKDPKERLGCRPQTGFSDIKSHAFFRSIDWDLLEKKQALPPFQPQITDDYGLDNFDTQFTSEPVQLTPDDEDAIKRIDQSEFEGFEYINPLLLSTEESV
SNRK, sequence (Q9NRH2 whole entry): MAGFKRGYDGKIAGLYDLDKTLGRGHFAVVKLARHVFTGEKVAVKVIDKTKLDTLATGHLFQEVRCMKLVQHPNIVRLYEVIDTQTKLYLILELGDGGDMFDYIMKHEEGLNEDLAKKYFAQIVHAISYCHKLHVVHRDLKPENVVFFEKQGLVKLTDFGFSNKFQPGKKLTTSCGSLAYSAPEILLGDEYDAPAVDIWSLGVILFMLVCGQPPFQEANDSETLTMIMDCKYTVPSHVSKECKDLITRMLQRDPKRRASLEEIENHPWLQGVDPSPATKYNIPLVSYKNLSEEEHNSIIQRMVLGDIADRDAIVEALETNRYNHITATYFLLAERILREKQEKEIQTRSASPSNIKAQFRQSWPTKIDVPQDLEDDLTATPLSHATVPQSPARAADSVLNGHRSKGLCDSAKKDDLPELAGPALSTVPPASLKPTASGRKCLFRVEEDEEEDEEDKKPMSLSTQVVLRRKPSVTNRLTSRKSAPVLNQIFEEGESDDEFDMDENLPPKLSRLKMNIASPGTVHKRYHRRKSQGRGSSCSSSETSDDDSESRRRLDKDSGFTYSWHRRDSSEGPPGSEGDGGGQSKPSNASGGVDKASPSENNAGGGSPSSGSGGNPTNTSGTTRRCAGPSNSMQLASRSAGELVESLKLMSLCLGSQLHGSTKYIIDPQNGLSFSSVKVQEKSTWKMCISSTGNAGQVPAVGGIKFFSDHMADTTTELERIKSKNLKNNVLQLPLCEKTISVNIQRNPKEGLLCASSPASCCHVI
IKKb, sequence (O14920 whole entry): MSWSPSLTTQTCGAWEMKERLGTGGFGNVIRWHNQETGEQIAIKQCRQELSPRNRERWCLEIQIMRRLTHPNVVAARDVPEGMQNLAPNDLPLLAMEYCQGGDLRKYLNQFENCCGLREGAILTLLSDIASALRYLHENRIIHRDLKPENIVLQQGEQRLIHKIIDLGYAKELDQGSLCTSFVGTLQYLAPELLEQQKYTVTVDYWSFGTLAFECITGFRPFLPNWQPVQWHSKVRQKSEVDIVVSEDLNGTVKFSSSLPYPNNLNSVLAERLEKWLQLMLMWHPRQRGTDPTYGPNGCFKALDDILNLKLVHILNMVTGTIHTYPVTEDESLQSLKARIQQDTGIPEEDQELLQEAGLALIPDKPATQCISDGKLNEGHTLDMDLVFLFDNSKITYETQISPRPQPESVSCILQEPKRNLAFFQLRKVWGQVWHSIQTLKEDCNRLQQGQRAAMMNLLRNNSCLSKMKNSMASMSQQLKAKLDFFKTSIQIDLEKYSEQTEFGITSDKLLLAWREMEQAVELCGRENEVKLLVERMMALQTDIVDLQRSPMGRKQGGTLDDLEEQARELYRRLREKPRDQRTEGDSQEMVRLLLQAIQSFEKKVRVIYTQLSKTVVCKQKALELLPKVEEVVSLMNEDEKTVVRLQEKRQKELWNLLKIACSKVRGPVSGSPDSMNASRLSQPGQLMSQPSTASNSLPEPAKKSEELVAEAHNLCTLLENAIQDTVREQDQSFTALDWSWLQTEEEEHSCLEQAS
ILK, sequence (Q13418 whole entry): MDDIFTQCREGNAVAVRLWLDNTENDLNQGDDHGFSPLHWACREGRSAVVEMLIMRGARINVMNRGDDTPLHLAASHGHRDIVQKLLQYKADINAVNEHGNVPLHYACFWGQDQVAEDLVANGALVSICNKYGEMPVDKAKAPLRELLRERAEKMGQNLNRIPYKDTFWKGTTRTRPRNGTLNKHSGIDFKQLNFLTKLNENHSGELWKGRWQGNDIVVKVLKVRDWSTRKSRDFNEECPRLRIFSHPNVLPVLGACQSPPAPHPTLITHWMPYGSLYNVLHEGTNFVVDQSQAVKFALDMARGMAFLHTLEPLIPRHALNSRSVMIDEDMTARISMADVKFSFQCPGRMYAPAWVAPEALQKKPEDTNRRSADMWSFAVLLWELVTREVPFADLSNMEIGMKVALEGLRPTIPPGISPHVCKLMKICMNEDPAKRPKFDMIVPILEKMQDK
IRE1, sequence (O75460 19-977): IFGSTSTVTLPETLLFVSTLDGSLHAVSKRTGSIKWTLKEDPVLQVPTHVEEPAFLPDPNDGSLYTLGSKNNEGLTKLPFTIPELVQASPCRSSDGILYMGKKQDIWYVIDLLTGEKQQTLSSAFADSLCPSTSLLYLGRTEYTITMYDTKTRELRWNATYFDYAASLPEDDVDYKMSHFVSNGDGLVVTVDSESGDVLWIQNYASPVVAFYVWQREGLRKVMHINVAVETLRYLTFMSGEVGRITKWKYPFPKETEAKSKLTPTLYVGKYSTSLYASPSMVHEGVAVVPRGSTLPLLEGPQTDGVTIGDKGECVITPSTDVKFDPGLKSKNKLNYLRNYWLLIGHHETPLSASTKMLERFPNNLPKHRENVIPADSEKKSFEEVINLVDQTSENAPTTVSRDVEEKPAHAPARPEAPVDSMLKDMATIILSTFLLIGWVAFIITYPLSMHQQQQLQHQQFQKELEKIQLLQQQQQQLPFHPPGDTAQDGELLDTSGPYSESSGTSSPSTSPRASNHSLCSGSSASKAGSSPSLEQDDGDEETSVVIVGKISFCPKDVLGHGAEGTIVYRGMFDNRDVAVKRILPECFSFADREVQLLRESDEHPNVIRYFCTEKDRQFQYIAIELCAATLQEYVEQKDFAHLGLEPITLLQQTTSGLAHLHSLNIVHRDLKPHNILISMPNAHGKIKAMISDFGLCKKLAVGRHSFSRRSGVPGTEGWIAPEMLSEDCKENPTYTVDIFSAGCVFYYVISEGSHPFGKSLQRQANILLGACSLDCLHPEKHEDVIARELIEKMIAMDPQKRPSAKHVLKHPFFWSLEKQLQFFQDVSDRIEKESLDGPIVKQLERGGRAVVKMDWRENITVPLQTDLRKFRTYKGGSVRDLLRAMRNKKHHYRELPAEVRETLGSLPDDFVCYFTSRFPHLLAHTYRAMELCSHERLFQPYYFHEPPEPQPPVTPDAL
GSK3B, sequence (P49841 whole entry): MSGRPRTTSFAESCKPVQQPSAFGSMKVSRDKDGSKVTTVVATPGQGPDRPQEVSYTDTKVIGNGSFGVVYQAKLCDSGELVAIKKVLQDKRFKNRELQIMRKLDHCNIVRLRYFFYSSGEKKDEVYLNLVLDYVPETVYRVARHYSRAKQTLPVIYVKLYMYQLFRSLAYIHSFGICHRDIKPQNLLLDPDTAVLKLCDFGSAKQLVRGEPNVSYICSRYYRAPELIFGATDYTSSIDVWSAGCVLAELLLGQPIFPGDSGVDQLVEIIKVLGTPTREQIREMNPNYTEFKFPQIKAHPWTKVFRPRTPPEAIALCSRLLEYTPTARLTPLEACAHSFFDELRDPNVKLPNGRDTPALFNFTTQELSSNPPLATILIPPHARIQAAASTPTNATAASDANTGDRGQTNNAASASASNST
LKB1, sequence (Q15831 whole entry): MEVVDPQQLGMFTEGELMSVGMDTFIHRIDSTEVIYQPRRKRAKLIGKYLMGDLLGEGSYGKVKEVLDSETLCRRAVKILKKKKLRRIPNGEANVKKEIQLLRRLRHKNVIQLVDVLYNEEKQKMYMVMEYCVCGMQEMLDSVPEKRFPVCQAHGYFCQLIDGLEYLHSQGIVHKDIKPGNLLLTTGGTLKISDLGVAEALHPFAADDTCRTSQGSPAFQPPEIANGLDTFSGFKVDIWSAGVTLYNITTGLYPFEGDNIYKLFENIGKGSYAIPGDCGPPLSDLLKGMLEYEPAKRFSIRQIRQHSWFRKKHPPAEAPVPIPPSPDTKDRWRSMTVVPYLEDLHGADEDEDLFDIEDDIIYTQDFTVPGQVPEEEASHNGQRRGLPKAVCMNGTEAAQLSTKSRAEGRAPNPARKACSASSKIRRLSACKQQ
PIP4K2A, sequence (P48426 whole entry): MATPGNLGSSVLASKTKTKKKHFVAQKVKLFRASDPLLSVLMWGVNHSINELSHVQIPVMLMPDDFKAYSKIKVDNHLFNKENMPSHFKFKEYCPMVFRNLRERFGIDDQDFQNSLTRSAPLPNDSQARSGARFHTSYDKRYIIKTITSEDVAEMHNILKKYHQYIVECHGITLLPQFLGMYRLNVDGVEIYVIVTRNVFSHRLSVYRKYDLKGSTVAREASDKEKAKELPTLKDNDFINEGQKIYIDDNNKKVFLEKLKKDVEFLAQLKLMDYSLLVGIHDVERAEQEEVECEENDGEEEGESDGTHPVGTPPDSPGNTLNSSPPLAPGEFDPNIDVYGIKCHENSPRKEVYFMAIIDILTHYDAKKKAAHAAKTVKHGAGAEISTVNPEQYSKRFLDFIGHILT

Nc1ncc(-c2ccc(NS(=O)(=O)C3CC3)cc2F)cc1-c1ccc2c(c1)CCNC2=O [Compound I-51, N-(4-(6-amino-5-(1-oxo-1,2,3,4-tetrahydroisoquinolin-6-yl)pyridin-3-yl)-3-fluorophenyl) cyclopropanesulfonamide]
inhibition at 10 µM (AurB; [2]): 0% | inhibition at 10 µM (AurB; read-out: inhibition (10 μM)): 31.8% | inhibition at 10 µM (CaMK2d; [2]): 0% | inhibition at 10 µM (CaMK2d; read-out: inhibition (10 μM)): 2.3% | inhibition at 10 µM (CaMK2g; [2]): 0% | inhibition at 10 µM (CaMK2g; read-out: inhibition (10 μM)): -6.4% | inhibition at 10 µM (CaMKK2; [2]): 75 to 90% | inhibition at 10 µM (CaMKK2; read-out: inhibition (10 μM)): 78.5% | inhibition at 10 µM (Erk2; [2]): 0% | inhibition at 10 µM (Erk2; read-out: inhibition (10 μM)): 31.8% | inhibition at 10 µM (FER; [2]): 0% | inhibition at 10 µM (FER; read-out: inhibition (10 μM)): 13.4% | inhibition at 10 µM (GCN2 domain2; [2]): 0% | inhibition at 10 µM (GCN2 domain2; read-out: inhibition (10 μM)): -5.1% | inhibition at 10 µM (GSK3A; [2]): 75 to 90% | inhibition at 10 µM (GSK3A; read-out: inhibition (10 μM)): 85.2% | inhibition at 10 µM (GSK3B; [2]): > 90% | inhibition at 10 µM (GSK3B; read-out: inhibition (10 μM)): 90.2% | inhibition at 10 µM (IKKb; [2]): 0% | inhibition at 10 µM (IKKb; read-out: inhibition (10 μM)): -19.5% | inhibition at 10 µM (ILK; [2]): 0% | inhibition at 10 µM (ILK; read-out: inhibition (10 μM)): -31.3% | inhibition at 10 µM (IRE1; [2]): 0% | inhibition at 10 µM (IRE1; read-out: inhibition (10 μM)): -43.1% | % inhibition (JNK1, JNK2, JNK3; 10 μM, range class): 0.0% | inhibition (10 μM) (JNK1, JNK2, JNK3): 29.3% | inhibition at 10 µM (LATS1; [2]): 0% | inhibition at 10 µM (LATS1; read-out: inhibition (10 μM)): 3.9% | inhibition at 10 µM (LKB1; [2]): 0% | inhibition at 10 µM (LKB1; read-out: inhibition (10 μM)): 5.1% | inhibition at 10 µM (LYN; [2]): 0% | inhibition at 10 µM (LYN; read-out: inhibition (10 μM)): -21.9% | % inhibition (MAP2K1, MAP2K2): 0.0% | inhibition at 10 µM (MAP3K2; [2]): 0% | inhibition at 10 µM (MAP3K2; read-out: inhibition (10 μM)): -11.2% | % inhibition (MAP3K2, MAP3K3; 10 μM, range class): 0.0% | inhibition (10 μM) (MAP3K2, MAP3K3): 26.7% | inhibition at 10 µM (MLKL; [2]): 50 to 75% | inhibition at 10 µM (MLKL; read-out: inhibition (10 μM)): 51.4% | % inhibition (NEK6, NEK7; 10 μM, range class): 0.0% | inhibition (10 μM) (NEK6, NEK7): −63.6% | inhibition at 10 µM (NEK8; [2]): 0% | inhibition at 10 µM (NEK8; read-out: inhibition (10 μM)): -8.1% | inhibition at 10 µM (NuaK2; [2]): 35 to 40% | inhibition at 10 µM (NuaK2; read-out: inhibition (10 μM)): 45.1% | inhibition at 10 µM (PEK; [2]): 0% | inhibition at 10 µM (PEK; read-out: inhibition (10 μM)): -16.3% | inhibition at 10 µM (PIP4K2A; [2]): 0% | inhibition at 10 µM (PIP4K2A; read-out: inhibition (10 μM)): -16.5% | inhibition at 10 µM (PKCz; [2]): 0% | inhibition at 10 µM (PKCz; read-out: inhibition (10 μM)): 2.1% | inhibition at 10 µM (PKD3; [2]): 50 to 75% | inhibition at 10 µM (PKD3; read-out: inhibition (10 μM)): 74.8% | inhibition at 10 µM (PRPK; [2]): 0% | inhibition at 10 µM (PRPK; read-out: inhibition (10 μM)): -47.4% | inhibition at 10 µM (RSK1 domain1; [2]): 0% | inhibition at 10 µM (RSK1 domain1; read-out: inhibition (10 μM)): 5.4% | inhibition at 10 µM (SNRK; [2]): 0% | inhibition at 10 µM (SNRK; read-out: inhibition (10 μM)): -26.2% | inhibition at 10 µM (STLK5; [2]): 0% | inhibition at 10 µM (STLK5; read-out: inhibition (10 μM)): -17.1% | % inhibition (TAO1, TAO3; 10 μM, range class): 75-90% | inhibition (10 μM) (TAO1, TAO3): 80.4% | inhibition at 10 µM (ZAK; [2]): 50 to 75% | inhibition at 10 µM (ZAK; read-out: inhibition (10 μM)): 58.3% | % inhibition ([1]; 10 μM, range class): >90% | inhibition (10 μM) [1]: 97.2%
